Test results: patent publication US10710964B2, “Organic electrolyte compounds for redox-flow batteries” (FUNDACIÓN CENTRO DE INVESTIGACIÓN COOPERATIVA DE ENERGÍAS …, priority 2015, dated 2020)
Converted amounts (≈) assume the structure as drawn. Values belong to the molecule of their own block, whether it stands above or below them.

Legend:
Type in all cases: physicochemical
[1] = Solubility studies (maximum concentration in aqueous media); details: for solubility: 0.1 M HClO4, room temperature; for solubility (concentration values): medium not given
Protocol: These were conducted in glass vials of 25 ml volume in which the organic electrolyte compound mass ranging between 15-30 mg approximately was dissolved in DI-H2O and also in the different supporting electrolytes. The procedure was performed in the following steps: after the addition of the solid, a small volume (usually starting from 25 μl) was added by using a micropipette, the suspension was vigorously shaken by hand until complete homogenization of the media in the whole vial (bottom part and walls) was observed. After that, the vials are left standing overnight. The day after, possible precipitation at the bottom of the vial was evaluated. If some solid appeared, the addition of more volume of solvent and/or supporting electrolyte was continued until the solid disappeared completely. […] The final concentration value was only calculated for those samples showing a stable solution after several weeks.

[2] = Cyclic voltammetry in cavity micro-electrode, three-electrode cell; details: for shift of redox potential on sulphonation, lower oxidation state / shift of redox potential on sulphonation, upper oxidation state: 0.1 M HClO4, sulphonated form in comparison to the parent molecule
Protocol: Attenuated Total Reflectance-Fourier Transform InfraRed (ATR-FTIR) spectra were recorded on Vertex 70 spectrometer (Bruker) in the range of wavelength of 4000-400 cm^−1. Differential Scanning Calorimetry measurements (DSC) were carried out on a TA Instruments Q2000 model in a sealed Al pan at a heating rate of 5° C. min^−1 in the temperature range between −80° C. and 100° C. The cyclic voltammetry measurements were performed in a cavity micro-electrode (CME) with an electrochemical interface area around a fraction of mm^2 and ohmic drop coming from the bulk of the electrolyte that can be neglected, allowing the use of high scan rates [C. Cachet-Vivier et al.; Electrochim. Acta 47, 181-189 (2001)]. The samples were studied electrochemically by using a three-electrode configuration cell in DI-H2O and the different supporting electrolytes with a platinum wire as counter electrode and Ag/AgCl or Hg/HgO as reference electrode depending of the acidic or basic pH of the media respectively.
The microcavity was filled with a homogenous mixture of active material (50 wt %) and carbon super C-65 (50 wt %) by applying pressure against an agate mortar. The cavity was cleaned by immersing the electrode in ethanol in an ultrasonic bath between experiments. For the CME, scan rates approximately an order of magnitude larger could be used without distortion usually seen in conventional cells [R. Lin et al., J. Electrochem. Soc. 1, A7-A12 (2009)]. All the experiments using CME were made three times for the same sample to check reliability. […] Cyclic voltammetry experiments were done from 10 mV/s to 1 V/s using a multichannel potentiostat/galvanostat (VMP3, Biologic). In order to make a direct comparison between the different samples, all current values were normalized to current values measured in the pure capacitive behavior region.

[3] = Experimental density of the electrolyte solutions
Description: Considering the two electron-proton process taking place in the present redox molecules, for a constant amount of grams of salt the optimization of the final concentration will be a balance between the molecular weight and the packing density of the organic compounds in the electrolyte solution. Highest concentration values and subsequently of chemical-electrical energy density stored in the present systems would be achieved as higher the packing density and lower the molecular weight of the molecule. The experimental density of the present solutions containing the redox neutral salts were measured. Densities of 1.04 g/ml, 1.00 g/ml and 0.95 g/ml were measured for solutions 1.23 M of Alizarine SH in H2O, 1.17 M of Alizarine SH in H2O and 1.46 M of Alizarine SH in 0.1 M HClO4 respectively.

[4] = vs. Ag/AgCl ref. electrode, BR buffer pH=7
[5] = aqueous BR buffer at pH=7, room temperature
[6] = pure/neat DI-H2O, room temperature

SMILES: O=C1c2ccccc2C(=O)c2c1cc(S(=O)(=O)[O-])c(O)c2O.OC[P+](CO)(CO)CO [Alizarin S. Red-TKMP]
solubility [1]: ~1500 mM
solubility (concentration values) [1]: 1600 mM

SMILES: O=C1c2ccccc2C(=O)c2c1ccc(O)c2O [alizarin, 1,2-dihydroxy-9,10-anthraquinone, reference compound]
shift of redox potential on sulphonation, lower oxidation state [2]: ~50 mV
shift of redox potential on sulphonation, upper oxidation state [2]: ~35 mV

reduction peak at negative potential [2, 4]: −0.44 V
reduction peak at positive potential [2, 4]: 0.31 V
SMILES: O=C1/C(=C2\Nc3ccccc3C2=O)Nc2ccccc21 [Indigo, 2,2′-Bis(2,3-dihydro-3-oxoindolylidene), reference compound]

shift of redox potential on sulphonation, lower oxidation state [2]: ~100 mV
shift of redox potential on sulphonation, upper oxidation state [2]: ~15 mV
SMILES: O=C1c2ccccc2C(=O)c2c(O)ccc(O)c21 [quinizarin, 1,4-dihydroxy-9,10-anthraquinone, reference compound]

SMILES: O=C1C(=C2Nc3ccc(S(=O)(=O)[O-])cc3C2=O)Nc2ccc(S(=O)(=O)[O-])cc21.OC[P+](CO)(CO)CO.OC[P+](CO)(CO)CO [Indigo Carmine-TKMP]
peak separation of the two redox peaks ([2]; BR buffer pH=7): 1 V

solubility (highest concentration) [1, 5]: ~400 mM (≈ 169 mg/mL)
solubility (highest concentration) [1, 6]: ~600 mM (≈ 253 mg/mL)
separation of the pair of reversible reduction peaks ([2]; BR buffer pH=3): ~0.75 V
peak separation of the two redox peaks ([2]; BR buffer pH=7): ~1 V
separation of both peaks ([2]; BR buffer pH=9, stabilized at cycle 10): ~0.8 V
anodic shift in DI-H2O relative to BR buffer pH=7 ([2]; DI-H2O, pH ~6): ~170 mV
peak separation of the two redox peaks ([2]; neat DI-H2O): ~1 V
SMILES: O=C1/C(=C2\Nc3ccc(S(=O)(=O)O)cc3C2=O)Nc2ccc(S(=O)(=O)O)cc21 [Indigo Carmine-H^+]

solubility (highest concentration) [1, 5]: up to 0.76 M
solubility (concentration values) [1]: up to 0.76 M
solubility (highest concentration) [1, 6]: up to 0.76 M
peak separation of the two redox peaks ([2]; BR buffer pH=7): 1 V
SMILES: O=C1/C(=C2\Nc3ccc(S(=O)(=O)[O-])cc3C2=O)Nc2ccc(S(=O)(=O)[O-])cc21.OCC[N+](CCO)(CCO)CCO.OCC[N+](CCO)(CCO)CCO [Indigo Carmine-TKEN]

SMILES: O=C1C(=C2Nc3ccc(S(=O)(=O)[O-])cc3C2=O)Nc2ccc(S(=O)(=O)[O-])cc21.[Na+].[Na+] [Indigo Carmine-Na^+, 3,3′-dioxo-2,2′-bis-indolyden-5,5′-disulfonic acid disodium salt]
anodic shift of both pairs of peaks relative to Indigo ([2]; BR buffer pH=7): approximately 80 mV

SMILES: O=C1c2ccccc2C(=O)c2c1cc(S(=O)(=O)O)c(O)c2O [Alizarin S. Red-H^+]
solubility [1]: ~1500 mM (≈ 480 mg/mL)
solubility (concentration values) [1]: 1600 mM (≈ 512 mg/mL)
density of solution ([3]; 1.17 M solution in H2O): 1.00 g/mL
density of solution ([3]; 1.23 M solution in H2O): 1.04 g/mL
density of solution ([3]; 1.46 M solution in 0.1 M HClO4): 0.95 g/mL
